Results published in EP0869969B1, “PEPTIDE CONJUGATES, USE THEREOF AS A DRUG, AND COMPOSITIONS CONTAINING them” (INSTITUT EUROPEEN DE BIOLOGIE CELLULAIRE, priority 1995, dated 2003).
“And” between values parts separate entries of the source, which are not always exact repeats. Identical values can stand only once. Starred links: 1 amine or outer side, 2 acyl side, 3 side chain; linkers in the order of their positions; H or OH if unused. Residues, ends and D or L forms follow the SMILES beside them. Adipoyl = O=C(CCCCC(=O)[*:2])[*:1]

Legend:
rat-OFA = test: Wound-healing power in the rat: sutured flank incision, topical application, scar resistance to stretching by dynamometer; assay type: in vivo; details: for augmentation de la cicatrisation des plaies par rapport aux témoins: 5 jours; for Résistance des cicatrices à l'étirement, Moyenne: mean of treated group (control 24,5 +/- 1,5)
Description: Déterminer le pouvoir cicatrisant du peptide n° 7 administré chez le rat-OFA par applications topiques aux doses de 0,75 µg, 7,5 µg et 75 µg par animal pendant cinq jours.
I - Animaux : rats de souche OFA, OF1, IFFA-CREDO, pesant de 250 à 300 g.
Conjugué peptidique n° 7, correspondant la formule : Adipoyl-Lys-Lys-Gly-His-Lys-NH2.
Mis en solution dans le propylène glycol aux doses de 1,5 µg/ml, 15 µg/ml, 150 µg/ml.
Après anesthésie générale à l'éther, une incision de 5 cm de long a été pratiquée sur la flanc droit des animaux.
Une suture en fil trinyl 2/0 a été effectuée à raison d'un point tous les 0,5 cm.
Les animaux traités comme les témoins ont subi la même intervention dans les mêmes conditions.
Le traitement a débuté le lendemain de l'intervention sur les lots d'animaux traités aux doses de 0,5 ml de solution peptidique sur chaque incision.
Soit 0,75 µg, 7,5 µg et 75 µg de peptide par animal et par application pendant la durée du traitement, soit 5 jours.
Les animaux ont été mis en observation pendant 9 jours, ils ont ensuite été sacrifiés par une dose létale de penthiobarbital.
Les zones de peau en cours de cicatrisation ont été prélevées et soumises aux "tests" d'étirement au dynamomètre, pour mesurer la résistance de la cicatrice à l'étirement.
Une analyse statistique a été effectuée sur les valeurs de résistance obtenue au dynamomètre. Une analyse de variance et un test de "T" student a été pratiqué sur les valeurs individuelles, afin de définir le seuil de signification des résultats.

[1] = test system: fibroblastes humains de plastie mammaire; test: Type I collagen synthesis by cultured primary fibroblasts, secondary immunofluorescence (rhodamine/TRITC); assay type: cell-based, humain
Excerpt: (§1) La mise en évidence de l'influence du conjugué n' 7 sur la synthèse de collagène de type I par des cellules en culture a été réalisée sur deux types cellulaires : • des fibroblastes humains de plastie mammaire au 3ème passage, obtenus dans notre laboratoire de culture cellulaire à l'IEB, • des MRC5, fibroblastes de poumon embryonnaire humain non transformés au passage p38, obtenus à p 25-30 chez ICN FLOW.
(§2) Les cellules sont stimulées ou non avec le conjugué n° 7, puis elles sont observées au microscope pholoniquc à fluorescence après révélation du collagène de type I par une réaction d'immuno-fluorescence secondaire.
(§3) Les cellules sont ensemencées à raison de 70 000 cellules par ml pour les fibroblastes de primoculture et 20 000 pour les MRC5.
(§4) La culture est réalisée en DMEM 10% SVF dans les tubes de Leigton contenant une lamelle dans le fond du tube, volume final : 1,6 ml.
8 tubes sont prévus par type cellulaire : 3 témoins et 5 concentrations.
Ces différentes solutions mères seront ajoutées au milieu de culture au moment du contact produit.
Les dilutions sont réalisées dans du PBS (Eurobio) - BSA 0,1% (Flucka) puis filtrées sur filtres 0,22 µm (Sartorius).
A J0, le milieu est éliminé et remplacé par du milieu frais auquel est ajouté le conjugué n° 7 aux différentes concentrations selon le tableau suivant :
Les témoins TO et T ne reçoivent que du milieu.
Le milieu est élimine; les tubes sont rincés 3 fois avec du DMEM sans sérum à 37° C. Les cellules sont fixées 20 mn à 4°C en présence de PFA 2,5% (Prolabo) dans du Hanks (Eurobio).
3 rinçages en DMEM sans sérum sont effectués suivis de 2 lavages 10 mn en PBS sans calcium ni magnésium (Eurobio). […]
(§5) Les observations microscopiques sont réalisées sur un microscope droit à fluorescence Zeiss (Axioplan), surmonté d'une caméra 3 CCD Sony (MC-3215 P/M) reliée à un moniteur vidéo Trinitron avec écran couleur Sony. […]
(§6) Les cellules sont d'abord observées en contraste interférentiel et/ou de phase. Quand un champ est sélectionné, l'image est enregistrée, puis sans bouger d'endroit l'observation est réalisée en fluorescence et enregistrée. […]

[2] = test system: MRC5, fibroblastes de poumon embryonnaire humain; test: Type I collagen synthesis by cultured MRC5 fibroblasts, secondary immunofluorescence; assay type: cell-based; details: MRC5, results not shown
Excerpt: as §1, §2, §3, §4
8 tubes sont prévus par type cellulaire : 3 témoins et 5 concentrations. […]
as §5, §6

NCCCC[C@H](NC(=O)[C@H](Cc1c[nH]cn1)NC(=O)CNC(=O)[C@H](CCCCN)NC(=O)[C@H](CCCCN)NC(=O)CCCCC(=O)O)C(N)=O [conjugué 7, Adipoyl-Lys-Lys-Gly-His-Lys-NH2] (Adipoyl-KKGHK-NH2)
augmentation de la cicatrisation des plaies par rapport aux témoins (rat-OFA; topical, 0,75 µg par jour): 14,5%
Résistance des cicatrices à l'étirement "dynamométrie" (rat-OFA; topical, 0,75 µg/jour/5 jours, individual treated animals, sacrifice after 9 days): 28,5 Dynes and 26,1 Dynes and 29,3 Dynes and 27,7 Dynes and 28,6 Dynes
Résistance des cicatrices à l'étirement "dynamométrie", Moyenne (rat-OFA; topical, 0,75 µg/jour/5 jours, mean of treated group (control 24,5+/-1,5)): 28,0+/-1,2 Dynes
augmentation de la cicatrisation des plaies par rapport aux témoins (rat-OFA; topical, 75 µg par jour): 59,6%
augmentation de la cicatrisation des plaies par rapport aux témoins (rat-OFA; topical, 7,5 µg par jour): 30,9%
Résistance des cicatrices à l'étirement, Dynes (rat-OFA; topical, 7,5 µg/jour/5 jours (Tableau n° 2), individual treated animals): 32,6 Dynes and 30,4 Dynes and 33,1 Dynes and 32,3 Dynes and 31,8 Dynes
Résistance des cicatrices à l'étirement, Moyenne (rat-OFA; topical, 7,5 µg/jour/5 jours (Tableau n° 2)): 32,0 +/- 1,0 Dynes
Résistance des cicatrices à l'étirement, Dynes (rat-OFA; topical, Tableau n° 3, 7,5 µg/jour/5 jours, individual treated animals): 39,8 Dynes and 41,3 Dynes and 37,5 Dynes and 36,2 Dynes and 40,7 Dynes
Résistance des cicatrices à l'étirement, Moyenne (rat-OFA; topical, Tableau n° 3, 7,5 µg/jour/5 jours): 39,1+/-2,2 Dynes
aspect des cicatrisations au 9ème jour (rat-OFA; topical, day 9): cicatrisation parfaitement plate, avec absence de bourrelets cicatriciels
action cicatrisante (rat-OFA; topical, overall conclusion): action cicatrisante hautement significative
synthèse de collagène de type I ([1]; 10-11 M, fibroblastes de primoculture): stimule très significativement
luminosité moyenne du rouge sur l'ensemble de l'image ([1]; 10-11 M, untreated cells 32,78): 54,8
stimulation de la synthèse de collagène de type 1 ([1]; fibroblastes humains de primocultures, versus untreated cells): +67%
synthèse de collagène de type I [2]: mêmes tendances
